Experimental data as given in patent EP0551518A1, “QUINOLINECARBOXYLIC ACID DERIVATIVE” (NIPPON SHINYAKU COMPANY, LIMITED, priority 1990, dated 1992).
Values after ≈ are worked out from the molar mass of the structure shown. Where two headings read alike, the source gives them in different places.

Tests used:
Format in all cases: cell-based
[1] = system: Bacillus subtilis ATCC 6633; assay: Determination of minimal inhibitory concentration of growth (MIC)-1, agar plate dilution method; details: ATCC6633; Bacillus subtilis ATCC 6633; agar plate dilution, 10⁶ CFU/ml, 37°C, 18 hours; read-out: MIC
Experimental: (§1) Method: MIC was determined by the agar plate dilution method in accordance with the standard protocol of Japan Society of Chemotherapy (cf. Chemotherapy 29 (1), 76-79, 1981). Each bacterial culture obtained by 18-hour incubation in a sensitivity assay bouillon medium at 37°C was diluted to 10⁶ CFU/ml with the same medium. Using a microplanter, a sensitivity assay agar medium containing the test drug was inoculated with the diluted culture and incubated at 37°C for 18 hours. The MIC value was then determined. As reference drugs, 6-fluoro-1-methyl-4-oxo-7-(1-piperazinyl)-4H-[1,3]thiazeto[3,2-a]quinoline-3-carboxylic acid (referred to as control), ciprofloxacin (CPFX) and ofloxacin (OFLX) were used.

[2] = system: Enterococcus faecalis ATCC 29212; assay: as above; details: ATCC29212; Enterococcus faecalis ATCC 29212; agar plate dilution, 10⁶ CFU/ml, 37°C, 18 hours; read-out: MIC
Experimental: as §1

Escherichia coli KC-14 = assay: as above; details: Escherichia coli, KC14, 18 h, 10⁶ CFU/ml, 37°C, read-out: MIC
Experimental: as §1

[3] = system: Micrococcus luteus ATCC 9341; assay: as above; details: ATCC9341; Micrococcus luteus ATCC 9341; agar plate dilution, 10⁶ CFU/ml, 37°C, 18 hours; read-out: MIC
Experimental: as §1

Proteus vulgaris HX-19 = assay: as above; details: Proteus vulgaris, HX19, 18 h, Proteus vulgaris HX-19; agar plate dilution, 10⁶ CFU/ml, 37°C, 18 hours; read-out: MIC
Experimental: as §1

[4] = system: Pseudomonas aeruginosa IFO 3445; assay: as above; details: Pseudomonas aeruginosa, IFO3445, 18 h, Pseudomonas aeruginosa IFO 3445; agar plate dilution, 10⁶ CFU/ml, 37°C, 18 hours; read-out: MIC
Experimental: as §1

[5] = system: Staphylococcus aureus 209-P JC-1; assay: as above; details: Staphylococcus aureus 209-P JC-1, agar plate dilution, 10⁶ CFU/ml, 37°C, 18 hours
Experimental: as §1

[6] = system: Staphylococcus aureus OWPH 1984 (MRSA); assay: as above; details: Staphylococcus aureus, MRSA, 18 h, Staphylococcus aureus OWPH 1984 (MRSA); agar plate dilution, 10⁶ CFU/ml, 37°C, 18 hours; read-out: MIC
Experimental: as §1

[7] = system: Staphylococcus aureus OWPH 2125 (MRSA, PCA^r ); assay: as above; details: Staphylococcus aureus OWPH 2125 (MRSA, PCA^r), agar plate dilution, 10⁶ CFU/ml, 37°C, 18 hours
Experimental: as §1

[8] = system: Staphylococcus aureus Smith; assay: as above; details: Staphylococcus aureus Smith; agar plate dilution, 10⁶ CFU/ml, 37°C, 18 hours; read-out: MIC
Experimental: as §1

[9] = system: Staphylococcus epider-midis IFO 12993; assay: as above; details: Staphylococcus, IFO12993, 18 h, Staphylococcus epider-midis IFO 12993; agar plate dilution, 10⁶ CFU/ml, 37°C, 18 hours; read-out: MIC
Experimental: as §1

S. aureus OWPH 1770 = assay: Determination of minimal inhibitory concentration (MIC)-2, new quinolone-resistant MRSA; details: Staphylococcus aureus, OWPH1770, 18 h; S. aureus OWPH 1770, new quinolone-resistant and methicillin-resistant; same procedure as Test Example 1
Experimental: as §1
(§2) The antibacterial activity of the compounds obtained in Example 4, Example 25 and Example 26 of the present invention was assayed by the same procedure as in Test Example 1. As reference drugs, 6-fluoro-1-methyl-4-oxo-7-(1-piperazinyl)-4H-[1,3]-thiazeto[3,2-a]quinoline-3-carboxylic acid (referred to as Control), norfloxacin (NFLX) and tosufloxacin (TFLX) were used.

S. aureus OWPH 1773 = assay: as above; details: Staphylococcus aureus, OWPH1773, 18 h; S. aureus OWPH 1773, new quinolone-resistant and methicillin-resistant; same procedure as Test Example 1
Experimental: as §1, §2

S. aureus OWPH 1786 = assay: as above; details: Staphylococcus aureus, OWPH1786, 18 h; S. aureus OWPH 1786, new quinolone-resistant and methicillin-resistant; same procedure as Test Example 1
Experimental: as §1, §2

S. aureus OWPH 1792 = assay: as above; details: Staphylococcus aureus, OWPH1792, 18 h; S. aureus OWPH 1792, new quinolone-resistant and methicillin-resistant; same procedure as Test Example 1
Experimental: as §1, §2

S. aureus OWPH 1793 = assay: as above; details: Staphylococcus aureus, OWPH1793, 18 h; S. aureus OWPH 1793, new quinolone-resistant and methicillin-resistant; same procedure as Test Example 1
Experimental: as §1, §2

S. aureus OWPH 1796 = assay: as above; details: Staphylococcus aureus, OWPH1796, 18 h; S. aureus OWPH 1796, new quinolone-resistant and methicillin-resistant; same procedure as Test Example 1
Experimental: as §1, §2

S. aureus OWPH 1799 = assay: as above; details: Staphylococcus aureus, OWPH1799, 18 h; S. aureus OWPH 1799, new quinolone-resistant and methicillin-resistant; same procedure as Test Example 1
Experimental: as §1, §2

S. aureus OWPH 2124 = assay: as above; details: Staphylococcus aureus, OWPH2124, 18 h; S. aureus OWPH 2124, new quinolone-resistant and methicillin-resistant; same procedure as Test Example 1
Experimental: as §1, §2

S. aureus OWPH 2127 = assay: as above; details: Staphylococcus aureus, OWPH2127, 18 h; S. aureus OWPH 2127, new quinolone-resistant and methicillin-resistant; same procedure as Test Example 1
Experimental: as §1, §2

S. aureus OWPH 2128 = assay: as above; details: Staphylococcus aureus, OWPH2128, 18 h; S. aureus OWPH 2128, new quinolone-resistant and methicillin-resistant; same procedure as Test Example 1
Experimental: as §1, §2

S. aureus OWPH 2133 = assay: as above; details: Staphylococcus aureus, OWPH2133, 18 h; S. aureus OWPH 2133, new quinolone-resistant and methicillin-resistant; same procedure as Test Example 1
Experimental: as §1, §2

S. aureus OWPH 2134 = assay: as above; details: Staphylococcus aureus, OWPH2134, 18 h; S. aureus OWPH 2134, new quinolone-resistant and methicillin-resistant; same procedure as Test Example 1
Experimental: as §1, §2

S. aureus Sh 2 = assay: as above; details: Staphylococcus aureus, SH2, 18 h; S. aureus Sh 2, new quinolone-resistant and methicillin-resistant; same procedure as Test Example 1
Experimental: as §1, §2

S. aureus Sh 44 = assay: as above; details: Staphylococcus aureus, SH44, 18 h; S. aureus Sh 44, new quinolone-resistant and methicillin-resistant; same procedure as Test Example 1
Experimental: as §1, §2

S. aureus Sh 47 = assay: as above; details: Staphylococcus aureus, SH47, 18 h; S. aureus Sh 47, new quinolone-resistant and methicillin-resistant; same procedure as Test Example 1
Experimental: as §1, §2

S. aureus Sh 54 = assay: as above; details: Staphylococcus aureus, SH54, 18 h; S. aureus Sh 54, new quinolone-resistant and methicillin-resistant; same procedure as Test Example 1
Experimental: as §1, §2

S. aureus Sh 8 = assay: as above; details: Staphylococcus aureus, SH8, 18 h; S. aureus Sh 8, new quinolone-resistant and methicillin-resistant; same procedure as Test Example 1
Experimental: as §1, §2

| Structure (SMILES) | MIC [1] [µg/mL] | MIC [2] [µg/mL] | MIC (Escherichia coli KC-14) [µg/mL] | MIC [3] [µg/mL] | MIC (Proteus vulgaris HX-19) [µg/mL] | MIC [4] [µg/mL] | MIC [6] [µg/mL] | MIC [8] [µg/mL] | MIC [9] [µg/mL] | MIC (S. aureus OWPH 1770) [µg/mL] | MIC (S. aureus OWPH 1773) [µg/mL] | MIC (S. aureus OWPH 1786) [µg/mL] | MIC (S. aureus OWPH 1792) [µg/mL] | MIC (S. aureus OWPH 1793) [µg/mL] | MIC (S. aureus OWPH 1796) [µg/mL] | MIC (S. aureus OWPH 1799) [µg/mL] | MIC (S. aureus OWPH 2124) [µg/mL] | MIC (S. aureus OWPH 2127) [µg/mL] | MIC (S. aureus OWPH 2128) [µg/mL] | MIC (S. aureus OWPH 2133) [µg/mL] | other results |
| --- | --- | --- | --- | --- | --- | --- | --- | --- | --- | --- | --- | --- | --- | --- | --- | --- | --- | --- | --- | --- | --- |
| CC1Sc2c(C(=O)O)c(=O)c3cc(F)c(N4CCNCC4)cc3n21 (centres unmarked) [Control, 6-fluoro-1-methyl-4-oxo-7-(1-piperazinyl)-4H-[1,3]thiazeto[3,2-a]quinoline-3-carboxylic acid, reference compound] | 0.1 (≈ 0.286 µM) | 0.39 (≈ 1.12 µM) | 0.012 (≈ 0.0343 µM) | 1.56 (≈ 4.46 µM) | 0.025 (≈ 0.0716 µM) | 0.05 (≈ 0.143 µM) | 0.39 (≈ 1.12 µM) | 0.1 (≈ 0.286 µM) | 0.2 (≈ 0.572 µM) | 50 (≈ 143 µM) | 100 (≈ 286 µM) | > 100 | 100 (≈ 286 µM) | > 100 | 25 (≈ 71.6 µM) | > 100 | 12.5 (≈ 35.8 µM) | > 100 | > 100 | 25 (≈ 71.6 µM) | MIC ([5]; Staphylococcus aureus, 209P, 18 h, read-out: MIC): 0.1 µg/mL (≈ 0.286 µM); MIC ([7]; Staphylococcus aureus, MRSA, 18 h, read-out: MIC): 12.5 µg/mL (≈ 35.8 µM); MIC (S. aureus OWPH 2134): 50 µg/mL (≈ 143 µM); MIC (S. aureus Sh 2): 100 µg/mL (≈ 286 µM); MIC (S. aureus Sh 44): 50 µg/mL (≈ 143 µM); MIC (S. aureus Sh 47): 100 µg/mL (≈ 286 µM); MIC (S. aureus Sh 54): > 100 µg/mL; MIC (S. aureus Sh 8): 100 µg/mL (≈ 286 µM) |
| CC1Sc2c(C(=O)O)c(=O)c3cc(F)c(-c4ccc(N)cc4)cc3n21 (centres unmarked) [Example 4, 7-(4-Aminophenyl)-6-fluoro-1-methyl-4-oxo-4H-[1,3]thia-zeto[3,2-a]quinoline-3-carboxylic acid] | ≤ 0.006 | 0.05 (≈ 0.14 µM) | 0.025 (≈ 0.0702 µM) | 0.2 (≈ 0.561 µM) | 0.012 (≈ 0.0337 µM) | 0.1 (≈ 0.281 µM) | ≤ 0.006 | ≤ 0.006 | ≤ 0.006 | 0.2 (≈ 0.561 µM) | 0.78 (≈ 2.19 µM) | 1.56 (≈ 4.38 µM) | 0.78 (≈ 2.19 µM) | 1.56 (≈ 4.38 µM) | 0.78 (≈ 2.19 µM) | 1.56 (≈ 4.38 µM) | 0.78 (≈ 2.19 µM) | 1.56 (≈ 4.38 µM) | 1.56 (≈ 4.38 µM) | 0.78 (≈ 2.19 µM) | MIC [5]: 0.012 μ g/ml; MIC [7]: ≤ 0.006 μ g/ml; MIC (S. aureus OWPH 2134): 0.78 µg/mL (≈ 2.19 µM); MIC (S. aureus Sh 2): 0.78 µg/mL (≈ 2.19 µM); MIC (S. aureus Sh 44): 0.78 µg/mL (≈ 2.19 µM); MIC (S. aureus Sh 47): 0.78 µg/mL (≈ 2.19 µM); MIC (S. aureus Sh 54): 0.78 µg/mL (≈ 2.19 µM); MIC (S. aureus Sh 8): 0.78 µg/mL (≈ 2.19 µM) |
